Test results reported in patent publication US12403091B2, “Delivery system” (SMARTECH TOPICAL, INC., priority 2016, dated 2025).

Settings: same subject; Celebrex initiated and stopped after 3 days

Cc1ccc(-c2cc(C(F)(F)F)nn2-c2ccc(S(N)(=O)=O)cc2)cc1 [Celebrex, celecoxib]
Side effects leading to discontinuation: drowsiness and GI side effects
